Columns and labels:
[1] = tested on: human liver cancer cell (HepG2 cell) tumor-bearing nude mice; test: Uroporphyrin and coproporphyrin in urine by HPLC, nude mice bearing human liver cancer cells (Example 5); assay type: in vivo, nude mice (BALB/cA-nu)
Method: (§1) The thus collected urine was measured by HPLC (regarding the analyzing conditions, a fluorescence detector: excitation wavelength 406 nm, fluorescence wavelength 619 nm was used,
(§2) A: 80% acetonitrile/7% acetic acid/50 mM ammonium acetate and
(§3) B: 10% acetonitrile/4% acetic acid/50 mM ammonium acetate were used as the eluting solutions and subjected to a linear gradient of A/B (20/80)-A/B (90/10) for 13 minutes and then to elution with solution A for 10 minutes, ODS-AGtypeCAPCELLPAK, 4.6 mm×250 mm, particle diameter 5 μm (manufactured by Shiseido) was used as the column, and the measurement was carried out at a flow rate of 1.0 ml/min and at a temperature of 25° C.), and each concentration was calculated from the standard solutions. Further, the urine concentration was corrected by measuring the amount of creatinine (CRE) in urine, and calculating the amount of porphyrin per CRE.

[2] = tested on: MH 134 cell (ascitic liver cancer cell) tumor-bearing mice; details: female, C3H/He, mouse, in vivo, po
Method: A mouse tumor-bearing cell (MH 134 cell: ascitic liver cancer cell) was intraperitoneally administered to mice (C3H/He line, 5-week-old, female) at a dose of 1×10^6 cells, and they were reared for 0 to 14 days. Ten days after the intraperitoneal administration of tumor-bearing cells, 50 μl of 0.12 M δ-aminolevulinic acid hydrochloride, δ-aminolevulinic acid methyl ester hydrochloride, δ-aminolevulinic acid hexyl ester hydrochloride or δ-aminolevulinic acid phosphate was orally administered to the mice to which the tumor-bearing cells had been intraperitoneally administered. From 10 to 20 μl of blood samples were collected from the orally administered mice 0, 0.25, 0.5, 2, 3, 4 or 6 hours thereafter. The thus collected blood was centrifuged at 2000×g for 5 minutes, 300 μl of ethyl acetate/acetic acid (2/1, v/v) was added to 5 μl of the supernatant (plasma), followed by mixing, 300 μl of 0.6 M NaOH solution was further added thereto, followed by mixing, and the NaOH layer was collected. To the remaining organic layer, 300 μl of 0.5 M aqueous hydrochloric acid solution was added, and the aqueous hydrochloric acid solution layer was collected. Fluorescence intensities of the NaOH layer and aqueous hydrochloric acid solution layer were measured (hydrochloric acid layer: excitation wavelength 400 nm, fluorescence wavelength 600 nm, NaOH layer: excitation wavelength 400 nm, fluorescence wavelength 619 nm), and respective concentrations were calculated from the standard solutions. In addition, δ-aminolevulinic acid hydrochloride, δ-aminolevulinic acid methyl ester hydrochloride, δ-aminolevulinic acid hexyl ester hydrochloride or δ-aminolevulinic acid phosphate was also orally administered (0.12 M, 50 μl) to normal mice as the control, and the same treatment was carried out.

normal mice [3] = test: Blood protoporphyrin IX and uroporphyrin by fluorescence detection after oral administration, normal mice (Example 1); assay type: in vivo; details: 2 hours after oral 50 μl of 0.12 M
normal nude mice = test: Uroporphyrin and coproporphyrin in urine by HPLC, normal nude mice (Example 5); assay type: in vivo; details: 4 hours after oral 50 μl of 0.12 M, corrected per creatinine
Method: as §1, §2, §3

[4] = tested on: human cervical cancer cell (HeLa cell) tumor-bearing nude mice; test: Uroporphyrin and coproporphyrin in urine by HPLC, nude mice bearing human cervical cancer cells (Example 5); assay type: in vivo, nude mice (BALB/cA-nu)
Method: as §1, §2, §3

[5] = tested on: MH 134 cell tumor-bearing mice; test: Uroporphyrin I and III in blood by HPLC, tumor-bearing mice (Example 2); assay type: in vivo, mice (C3H/He line); details: 2 hours after oral 50 μl of 0.12 M
Method: (§4) The samples were measured by HPLC (regarding the analyzing conditions, a fluorescence detector: excitation wavelength 406 nm, fluorescence wavelength 610 nm was used, a solution consisting of 12.5% acetonitrile, 1 M ammonium acetate and 0.27 mM EDTA, pH 5.15 (adjusted with acetic acid), was used as the eluting solution, ODS-AGtypeCAPCELLPAK, 4.6 mmφ×250 mm, particle diameter 5 μm (manufactured by Shiseido) was used as the column, and the measurement was carried out at a flow rate of 1.0 ml/min and at a temperature of 25° C.), and respective concentrations were calculated from the peak areas of standard solutions.

normal mice [6] = test: Uroporphyrin I and III in urine by HPLC, normal mice (Example 3); assay type: in vivo; details: 2 hours after oral 50 μl of 0.12 M
Method: as §4, with “The thus collected” for “The”, “619” for “610”, “the” for “the peak areas of”

[7] = tested on: MH 134 cell tumor-bearing mice; test: Uroporphyrin I and III in urine by HPLC, tumor-bearing mice (Example 3); assay type: in vivo, mice (C3H/He line)
Method: as §4, with “The thus collected” for “The”, “619” for “610”, “the” for “the peak areas of”

[8] = tested on: MH 134 cell tumor-bearing mice; test: Uroporphyrin and coproporphyrin in feces by HPLC, tumor-bearing mice (Example 4); assay type: in vivo, mice (C3H/He line); details: 2 hours after oral 50 μl of 0.12 M
Method: To 10 mg in wet weight portion of the thus collected feces, 100 μl of an ethyl acetate-acetic acid mixture liquid (4/1, v/v) was added, the mixture was homogenized and then filtered using a filter paper, 10 μl of the filtrate was measured by HPLC (regarding the analyzing conditions, a fluorescence detector: excitation wavelength 406 nm, fluorescence wavelength 619 nm was used, a solution A: 80% acetonitrile/7% acetic acid/50 mM ammonium acetate mixture liquid and a solution B: 10% acetonitrile/4% acetic acid/50 mM ammonium acetate mixture liquid were used as the eluting solutions and subjected to a linear gradient of A/B (20/80)-A/B (90/10) for 30 minutes and then to the holding with solution A for 20 minutes, ODS-AGtypeCAPCELLPAK, 4.6 mmφ×250 mm, particle diameter 5 μm (manufactured by Shiseido) was used as the column, and the measurement was carried out at a flow rate of 1.0 ml/min and at a temperature of 25° C.), and respective concentrations were calculated from the peak areas of standard solutions.

[9] = mice given human liver cancer cells, after administration
[10] = tumor-bearing mice (human liver cancer cell), 4 hours after oral 50 μl of 0.12 M, corrected per creatinine
[11] = mice given human cervical cancer cells, after administration
[12] = tumor-bearing mice (human cervical cancer cell), 4 hours after oral 50 μl of 0.12 M, corrected per creatinine
[13] = tumor-bearing mice, 2 hours after oral 50 μl of 0.12 M

With NCC(=O)CCC(=O)O.O=P(O)(O)O [δ-aminolevulinic acid phosphate] the “amount of coproporphyrin in urine relative to normal mice” value [1, 9] was “about 1.5 times”, the “amount of uroporphyrin in urine relative to normal mice” value [1, 9] was “about 15 times” and the “Coproporphyrin in urine, after administration” value [1, 10] was 1.44 μmol/g-CRE. For the same molecule, the “Uroporphyrin in urine, after administration” value [1, 10] was 2.47 μmol/g-CRE, the “time after administration at which concentrations of protoporphyrin IX and uroporphyrin became maximum” value (“time after administration” below) [2] was 2 h and the “uroporphyrin in blood of normal mice” value (normal mice [3]) was “hardly detected”. For the same molecule, the “Coproporphyrin in urine, after administration” value (normal nude mice) was 0.99 μmol/g-CRE, the “Uroporphyrin in urine, after administration” value (normal nude mice) was 0.16 μmol/g-CRE and the “amount of coproporphyrin in urine relative to normal mice” value [4, 11] was “about 2.7 times”. For the same molecule, the “amount of uroporphyrin in urine relative to normal mice” value [4, 11] was “about 94 times”, the “Coproporphyrin in urine, after administration” value [4, 12] was 2.66 μmol/g-CRE and the “Uroporphyrin in urine, after administration” value [4, 12] was 15.1 μmol/g-CRE.

With COC(=O)CCC(=O)CN.Cl [δ-aminolevulinic acid methyl ester hydrochloride] the “time after administration” value [2] was 2 h and the “uroporphyrin in blood of normal mice” value (normal mice [3]) was “hardly detected”.

With CCCCCCOC(=O)CCC(=O)CN.Cl [δ-aminolevulinic acid hexyl ester hydrochloride] the “time after administration” value [2] was 2 h and the “uroporphyrin in blood of normal mice” value (normal mice [3]) was “hardly detected”.

With Cl.NCC(=O)CCC(=O)O [δ-aminolevulinic acid hydrochloride] the “time after administration” value [2] was 2 h, the “uroporphyrin in blood of normal mice” value (normal mice [3]) was “hardly detected” and the “Ratio of uroporphyrin I/uroporphyrin III in blood” value [5] was 0.53. For the same molecule, the “Uroporphyrin I in blood, after administration” value [5] was 0.2 ng/µL, the “Uroporphyrin III in blood, after administration” value [5] was 0.38 ng/µL and the “Ratio of uroporphyrin I/uroporphyrin III in urine” value (normal mice [6]) was 0.94. For the same molecule, the “Uroporphyrin I in urine, after administration” value (normal mice [6]) was 0.95 ng/µL, the “Uroporphyrin III in urine, after administration” value (normal mice [6]) was 1.01 ng/µL and the “amounts of uroporphyrin I and uroporphyrin III in urine, tumor-bearing mice in comparison with normal mice” value ([7]; after administration, urine 2 hours) was “about 13 times”. For the same molecule, the “Ratio of uroporphyrin I/uroporphyrin III in urine” value [7, 13] was 0.54, the “Uroporphyrin I in urine, after administration” value [7, 13] was 11.95 ng/µL and the “Uroporphyrin III in urine, after administration” value [7, 13] was 22.28 ng/µL. The “Coproporphyrin in feces, after administration” value [8] was 0.21 pmol and the “Uroporphyrin in feces, after administration” value [8] was 1.75 pmol.

— patent publication US9340490B2, “Diagnostic agent for tumor” (SBI PHARMACEUTICALS CO., LTD., priority 2004, dated 2016)
